The source of these data is patent US20060089375A1, “Pyrazolo[3,4-b] pyridine compounds, and their use as phosphodiesterase inhibitors” (priority 2002, published 2006).

SMILES strings stand for the structures.

This experiment deals with T1, PDE4B (human recombinant) (Homo sapiens, UniProt Q07343).
T1 construct: made in house
T1 sequence (Q07343 1-564 isoform Q07343-2): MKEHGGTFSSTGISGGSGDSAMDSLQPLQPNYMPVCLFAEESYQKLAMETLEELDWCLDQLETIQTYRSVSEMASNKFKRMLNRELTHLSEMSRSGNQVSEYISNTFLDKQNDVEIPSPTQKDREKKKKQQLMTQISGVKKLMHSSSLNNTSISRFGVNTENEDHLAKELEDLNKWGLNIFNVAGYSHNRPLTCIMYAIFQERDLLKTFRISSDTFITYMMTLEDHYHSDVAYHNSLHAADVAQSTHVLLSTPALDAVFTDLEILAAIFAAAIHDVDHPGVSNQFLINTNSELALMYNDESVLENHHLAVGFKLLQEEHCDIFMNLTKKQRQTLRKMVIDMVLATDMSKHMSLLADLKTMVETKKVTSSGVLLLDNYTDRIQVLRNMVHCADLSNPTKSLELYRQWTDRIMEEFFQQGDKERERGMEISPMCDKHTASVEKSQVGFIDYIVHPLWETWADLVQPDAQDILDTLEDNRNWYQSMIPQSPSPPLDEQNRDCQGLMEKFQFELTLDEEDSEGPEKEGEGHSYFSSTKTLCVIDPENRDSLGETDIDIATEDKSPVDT
Kind of experiment: Inhibition of PDE4B activity: radioactive SPA or IMAP Fluorescence Polarisation (FP) assay. It is filed as biochemical. The following applies: PDE4B inhibitory activity, one reading or average of ca. 2-6 readings, read-out: PDE4B pIC50 (± about 0.5) (converted). From the text: Human recombinant PDE4B, in particular the 2B splice variant thereof (HSPDE4B2B), is disclosed in WO 94/20079 and also M. M. McLaughlin et al., “A low Km, rolipram-sensitive, cAMP-specific phosphodiesterase from human brain: cloning and expression of cDNA, biochemical characterisation of recombinant protein, and tissue distribution of mRNA”, J. Biol. Chem., 1993, 268, 6470-6476. For example, in Example 1 of WO 94/20079, human recombinant PDE4B is described as being expressed in the PDE-deficient yeast Saccharomyces cerevisiae strain GL62, e.g. after induction by addition of 150 uM CuSO4, and 100,000×g supernatant fractions of yeast cell lysates are described for use in the harvesting of PDE4B enzyme.
The ability of compounds to inhibit catalytic activity at PDE4B or 4D (human recombinant), PDE3 (from bovine aorta), PDE5 (human recombinant) or PDE6 (from bovine retina) was determined by Scintillation Proximity Assay (SPA) in 96-well format. Test compounds (preferably as a solution in DMSO, e.g. 0.5 to 1 microlitre (ul) volume) were preincubated at ambient temperature (room temperature, e.g. 19-23° C.) in Wallac Isoplates (code 1450-514) with PDE enzyme in 50 mM Tris-HCl buffer pH 7.5, 8.3 mM MgCl2, 1.7 mM EGTA, 0.05% (w/v) bovine serum albumin for 10-30 minutes (usually 30 minutes). The enzyme concentration was adjusted so that no more than 20% hydrolysis of the substrate defined below occurred in control wells without compound, during the incubation. For the PDE3, PDE4B and PDE4D assays, [5′,8-^3H]Adenosine 3′,5′-cyclic phosphate (Amersham Pharmacia Biotech, code TRK.559; or Amersham Biosciences UK Ltd, Pollards Wood, Chalfont St Giles, Buckinghamshire HP8 4SP, UK) was added to give 0.05 uCi per well and ˜10 nM final concentration. For the PDE5 and PDE6 assays, [8-^3H]Guanosine 3′,5′-cyclic phosphate (Amersham Pharmacia Biotech, code TRK.392) was added to give 0.05 uCi per well and ˜36 nM final concentration. Plates, e.g. containing approx. 100 ul volume of assay mixture, were mixed on an orbital shaker for 5 minutes and incubated at ambient temperature for 1 hour. Phosphodiesterase SPA beads (Amersham Pharmacia Biotech, code RPNQ 0150) were added ([…] per well) to terminate the assay. Plates were sealed and shaken and allowed to stand at ambient temperature for 35 minutes to 1 hour (preferably 35 minutes) to allow the beads to settle. Bound radioactive product was measured using a WALLAC TRILUX 1450 Microbeta scintillation counter. For inhibition curves, 10 concentrations (1.5 nM-30 uM) of each compound were assayed. Curves were analysed using ActivityBase and XLfit (ID. Business Solutions Limited, 2 Ocean Court, Surrey Research Park, Guildford, Surrey GU2 7QB, United Kindgom) Results were expressed as pIC50 values.
The ability of compounds to inhibit catalytic activity at PDE4B (human recombinant) or PDE4D (human recombinant) was determined by IMAP Fluorescence Polarisation ([…]) assay (IMAP Explorer kit, available from Molecular Devices Corporation, Sunnydale, Calif., USA; Molecular Devices code: R^8062) in 384-well format. The IMAP FP assay is able to measure PDE activity in an homogenous, non-radioactive assay format. The FP assay uses the ability of immobilised trivalent metal cations, coated onto nanoparticles (tiny beads), to bind the phosphate group of Fl-AMP that is produced on the hydrolysis of fluorescein-labelled (Fl) cyclic adenosine mono-phosphate (Fl-cAMP) to the non-cyclic Fl-AMP form. […] Binding of Fl-AMP product to the beads (coated with the immobilised trivalent cations) slows the rotation of the bound Fl-AMP and leads to an increase in the fluorescence polarisation ratio of parallel to perpendicular light. Inhibition of the PDE reduces/inhibits this signal increase. […]
Turning to `CCn1ncc2c(NC3CCC(=O)CC3)c(C(=O)NCc3ccc(OC(F)F)cc3)cnc21` [Example 266, N-({4-[(Difluoromethyl)oxy]phenyl}methyl)-1-ethyl-4-[(4-oxocyclohexyl)amino]-1H-pyrazolo[3,4-b]pyridine-5-carboxamide], the IC50 was 0.1 to 6.31 nM.
On to `CCn1ncc2c(NC3CCC(=O)CC3)c(C(=O)NCc3ccc(C(F)(F)F)cc3)cnc21` [Example 267, 1-Ethyl-4-[(4-oxocyclohexyl)amino]-N-{[4-(trifluoromethyl)phenyl]methyl}-1H-pyrazolo[3,4-b]pyridine-5-carboxamide], for which the IC50 is 0.1 to 6.31 nM.
In the case of `CCn1ncc2c(NC3CCC(=O)CC3)c(C(=O)NC3Cc4ccccc4C3)cnc21` [Example 271, N-(2,3-Dihydro-1H-inden-2-yl)-1-ethyl-4-[(4-oxocyclohexyl)amino]-1H-pyrazolo[3,4-b]pyridine-5-carboxamide], the IC50 is 0.1 to 6.31 nM.
Then `CCn1ncc2c(NC3CCCCC3)c(C(=O)NCc3ccc(OC)cc3)cnc21` [Example 431, 4-(Cyclohexylamino)-1-ethyl-N-{[4-(methyloxy)phenyl]methyl}-1H-pyrazolo[3,4-b]pyridine-5-carboxamide], with 0.1 to 6.31 nM.
For `CCn1ncc2c(NC3CCOCC3)c(C(=O)NCc3ccc(C)c(Cl)c3)cnc21` [Example 493, N-[(3-Chloro-4-methylphenyl)methyl]-1-ethyl-4-(tetrahydro-2H-pyran-4-ylamino)-1H-pyrazolo[3,4-b]pyridine-5-carboxamide] the value was 0.1 to 6.31 nM.
With `CCn1ncc2c(NC3CCOCC3)c(C(=O)NCc3ccc(Cl)cc3C)cnc21` [Example 494, N-[(4-Chloro-2-methylphenyl)methyl]-1-ethyl-4-(tetrahydro-2H-pyran-4-ylamino)-1H-pyrazolo[3,4-b]pyridine-5-carboxamide], the IC50 was 0.1 to 6.31 nM.
`CCn1ncc2c(NC3CCOCC3)c(C(=O)NCc3ccccc3OC(F)F)cnc21` [Example 495, N-({2-[(Difluoromethyl)oxy]phenyl}methyl)-1-ethyl-4-(tetrahydro-2H-pyran-4-ylamino)-1H-pyrazolo[3,4-b]pyridine-5-carboxamide]: the IC50 was 0.1 to 6.31 nM.
Regarding `CCn1ncc2c(NC3CCOCC3)c(C(=O)NCc3cccc(OC(F)F)c3)cnc21` [Example 498, N-({3-[(Difluoromethyl)oxy]phenyl}methyl)-1-ethyl-4-(tetrahydro-2H-pyran-4-ylamino)-1H-pyrazolo[3,4-b]pyridine-5-carboxamide], the IC50 is 0.1 to 6.31 nM.
Take `CCn1ncc2c(NC3CCOCC3)c(C(=O)NCc3ccc(C)cc3)cnc21` [Example 528, 1-Ethyl-N-[(4-methylphenyl)methyl]-4-(tetrahydro-2H-pyran-4-ylamino)-1H-pyrazolol[3,4-b]pyridine-5-carboxamide]: the IC50 was 0.1 to 6.31 nM.
Consider `CCn1ncc2c(NC3CCOCC3)c(C(=O)NCc3ccc(C(C)C)cc3)cnc21` [Example 551, 1-Ethyl-N-{[4-(1-methylethyl)phenyl]methyl)-4-(tetrahydro-2H-pyran-4-ylamino)-1H-pyrazolo[3,4-b]pyridine-5-carboxamide], for which the IC50 is 0.1 to 6.31 nM.
As for `CCc1cc(CC)cc(CNC(=O)c2cnc3c(cnn3CC)c2NC2CCOCC2)c1` [Example 575, N-[(3,5-Diethylphenyl)methyl]-1-ethyl-4-(tetrahydro-2H-pyran-4-ylamino)-1H-pyrazolo[3,4-b]pyridine-5-carboxamide], the IC50 is 0.1 to 6.31 nM.
For `CCn1ncc2c(NC3CCOCC3)c(C(=O)NCc3cc(Cl)cc(Cl)c3)cnc21` [Example 581, N-[(3,5-Dichlorophenyl)methyl]-1-ethyl-4-(tetrahydro-2H-pyran-4-ylamino)-1H-pyrazolo[3,4-b]pyridine-5-carboxamide], the IC50 was 0.1 to 6.31 nM.
For `CCn1ncc2c(NC3CCOCC3)c(C(=O)NCc3ccc(C)cc3C)cnc21` [Example 584, N-[(2,4-Dimethylphenyl)methyl]-1-ethyl-4-(tetrahydro-2H-pyran-4-ylamino)-1H-pyrazolo[3,4-b]pyridine-5-carboxamide], the IC50 is 0.1 to 6.31 nM.
`CCn1ncc2c(NC3CCOCC3)c(C(=O)NCc3ccccn3)cnc21` [Example 600, 1-Ethyl-N-(2-pyridinylmethyl)-4-(tetrahydro-2H-pyran-4-ylamino)-1H-pyrazolo[3,4-b]pyridine-5-carboxamide]: the IC50 was 12.6 to 100 nM.
For `CCc1ccccc1CNC(=O)c1cnc2c(cnn2CC)c1NC1CCOCC1` [Example 619, 1-Ethyl-N-[(2-ethylphenyl)methyl]-4-(tetrahydro-2H-pyran-4-ylamino)-1H-pyrazolo[3,4-b]pyridine-5-carboxamide], the IC50 was 0.1 to 6.31 nM.
Take `CCn1ncc2c(NC3CCOCC3)c(C(=O)NCc3ccc(Cl)cc3F)cnc21` [Example 622, N-[(4-Chloro-2-fluorophenyl)methyl]-1-ethyl-4-(tetrahydro-2H-pyran-4-ylamino)-IH-pyrazolo[3,4-b]pyridine-5-carboxamide]: the IC50 is 0.1 to 6.31 nM.
Then `CCn1ncc2c(NC3CCOCC3)c(C(=O)NCc3cc(C)cc(C)c3)cnc21` [Example 624, N-[(3,5-Dimethylphenyl)methyl]-1-ethyl-4-(tetrahydro-2H-pyran-4-ylamino)-1H-pyrazolo[3,4-b]pyridine-5-carboxamide], with 0.1 to 6.31 nM; and `CCn1ncc2c(NC3CCOCC3)c(C(=O)NCc3cccc(C)c3C)cnc21` [Example 625, N-[(2,3-Dimethylphenyl)methyl]-1-ethyl-4-(tetrahydro-2H-pyran-4-ylamino)-1H-pyrazolo[3,4-b]pyridine-5-carboxamide], with 0.1 to 6.31 nM.
In the case of `CCn1ncc2c(NC3CCOCC3)c(C(=O)NCc3cccc(Cl)c3Cl)cnc21` [Example 626, N-[(2,3-Dichlorophenyl)methyl]-1-ethyl-4-(tetrahydro-2H-pyran-4-ylamino)-1H-pyrazolo[3,4-b]pyridine-5-carboxamide], the IC50 was 0.1 to 6.31 nM.
With `CCn1ncc2c(NC3CCOCC3)c(C(=O)NCc3ccc(Br)cc3)cnc21` [Example 628, N-[(4-Bromophenyl)methyl]-1-ethyl-4-(tetrahydro-2H-pyran-4-ylamino)-1H-pyrazolo[3,4-b]pyridine-5-carboxamide], the IC50 was 0.1 to 6.31 nM.
Consider `CCn1ncc2c(NC3CCOCC3)c(C(=O)NCc3ccc(I)cc3)cnc21` [Example 630], for which the IC50 was 0.1 to 6.31 nM.
For the compound `CCc1ccc(CNC(=O)c2cnc3c(cnn3CC)c2NC2CCOCC2)cc1` [Example 636, 1-Ethyl-N-[(4-ethylphenyl)methyl]-4-(tetrahydro-2H-pyran-4-ylamino)-1H-pyrazolo[3,4-b]pyridine-5-carboxamide], the IC50 was 0.1 to 6.31 nM.
For `CCn1ncc2c(NC3CCOCC3)c(C(=O)NCc3ccccc3I)cnc21` [Example 638, 1-Ethyl-N-[(2-iodophenyl)methyl]-4-(tetrahydro-2H-pyran-4-ylamino)-1H-pyrazolo[3,4-b]pyridine-5-carboxamide] the value was 0.1 to 6.31 nM; for `CCn1ncc2c(NC3CCOCC3)c(C(=O)NCc3c(CO)ccc(Cl)c3Cl)cnc21` [Example 643, N-{[2,3-Dichloro-6-(hydroxymethyl)phenyl]methyl}-1-ethyl-4-(tetrahydro-2H-pyran-4-ylamino)-1H-pyrazolo[3,4-b]pyridine-5-carboxamide], 0.1 to 6.31 nM; for `CCn1ncc2c(NC3CCOCC3)c(C(=O)NCc3c(C)cc(Cl)cc3Cl)cnc21` [Example 644, N-[(2,4-Dichloro-6-methylphenyl)methyl]-1-ethyl-4-(tetrahydro-2H-pyran-4-ylamino)-1H-pyrazolo[3,4-b]pyridine-5-carboxamide], 0.1 to 6.31 nM.
